In patent US8710018B2, “Methods and compositions for inhibiting progression to chronic cardiac failure” (priority 2008, dated 2014):

Columns and labels:
[1] = system: rat myocardial infarction model (left anterior descending (LAD) artery ligation); assay: Rat myocardial infarction model (LAD artery ligation), echocardiographic function of the remote myocardium; format: in vivo
Excerpt: Although believed to be applicable to several different precipitating causes of CHF, the present inventor initially chose a myocardial infarction model because it would allow the effects of the infarct on the normal remaining myocardium to be studied without confounding factors, particularly the presence of disease in the tissues studied.
An important consequence of an MI is that the uninvolved, often normal, remote myocardium (RM) must assume the entire workload of the ventricle. […] The subcellular events which control and set in motion, the progression to CHF were heretofore unknown. The present inventor hypothesized that the progression begins when the remaining normal myocardium (RM) must assume the entire cardiac load, in effect a large increase for the RM, producing an unfavorable myocardial energy supply/demand ratio which leads to depressed myocardial energy levels. Moreover, because of the continuous nature of the stress imposed, there is essentially no opportunity to recover. As a result, the continued breakdown of AMP with further erosion of ATP levels occurs. Studies to understand this progression in a myocardial infarction (MI) model were undertaken. The hypothesis that a fall in RM energy levels, including myocardial ATP, leads to decreased function was tested by infusing ribose in a rat MI model. A rat myocardial infarction model involving (left anterior descending (LAD) artery ligation) was utilized. In this model the RM must produce the entire cardiac output and left ventricular (LV) dysfunction develops as depicted in FIG. 2 and in the results depicted in FIGS. 3-6.
Methods: Male Lewis rats (250-300 g, n=12) were evaluated by initial baseline 2D guided M-mode echocardiographic analysis using an HP SONOS 1550 system. The echocardiography included short axis views and EF by cubed formula, analyzing the variables of LVdd, LVsd, RM wall thickness, EF and SF. […] Animals underwent ligation of the left anterior descending coronary artery by to produce an anterior wall MI at 1-2 days after pump placement and received continuous venous infusion of 0.9% NaCl solution (at 30 μl/kg/hr) with or without 2.5% D-ribose (N=6 for each group) via the implanted osmotic mini-pump for 14 days. Echocardiographic analysis was performed 2 and 4 weeks post-MI to assess changes in function by ejection indices (ventricular contractility, ejection and shortening fractions), chamber dimensions, and wall thickness. FIG. 3 depicts the M-mode echocardiographic appearance of a rat heart in which post MI CHF has developed.

[2] = system: patients with chronic coronary artery disease and CHF; conditions: 3 weeks of oral D-ribose, 15 patients with existing CHF, cited from earlier work
myocardial ATP levels [3] = conditions: cited from earlier work
myocardial ATP levels [4] = conditions: rats given a toxic dose of isoproterenol and constriction of the abdominal aorta; cited from earlier work
rodent MI model = conditions: continuous i.v. ribose from before ligation for up to 48 hours, cited from earlier work
[5] = 2 wks post MI, 2.5% D-ribose continuous venous infusion for 14 days
[6] = 4 wks post MI, 2.5% D-ribose continuous venous infusion for 14 days
[7] = Pre-MI (baseline), ribose group
[8] = ribose infusion for 14 days after MI

SMILES: O=C[C@H](O)[C@H](O)[C@H](O)CO [Ribose, D-ribose]
- Ejection fraction (EF) [1, 5]: 50.5 ± 5.9 %
- LV diastolic diameter [1, 5]: 0.72 ± 0.08 cm
- LV systolic diameter [1, 5]: 0.47 ± 0.22 cm
- Posterior wall diastolic thickness [1, 5]: 0.18 ± 0.12 cm
- Shortening fraction (SF) [1, 5]: 19.8 ± 4.4%
- Ejection fraction (EF) [1, 6]: 49.1 ± 9.4 %
- LV diastolic diameter [1, 6]: 0.76 ± 0.07 cm
- LV systolic diameter [1, 6]: 0.64 ± 0.09 cm
- Posterior wall diastolic thickness [1, 6]: 0.13 ± 0.03 cm
- Septal diastolic thickness [1, 6]: 0.12 ± 0.02 cm
- Shortening fraction (SF) [1, 6]: 19.9 ± 6.1 %
- Ejection fraction (EF) [1, 7]: 76.4 ± 5.9%
- LV systolic diameter [1, 7]: 0.39 ± 0.06 cm
- Posterior wall diastolic thickness [1, 7]: 0.13 ± 0.02 cm
- Septal diastolic thickness [1, 7]: 0.13 ± 0.02 cm
- Shortening fraction (SF) [1, 7]: 38.6 ± 5.3%
- LV diastolic diameter ([1]; Pre-MI (baseline), ribose group, 2.5% D-ribose continuous venous infusion 30 μl/kg/hr for 14 days): 0.64 ± 0.04 cm
- contractility (EF, SF) compared to the untreated animals [1, 8]: better preserved
- ventricular dilation [1, 8]: significantly reduced
- wall thickness compared to the untreated animals [1, 8]: increased
- quality of life by questionnaire ([2]; P< or =0.01): 467±128
- E wave deceleration ([2]; P=0.002): 196±42
- left atrial dimension ([2]; P=0.02): 47 ± 18 mL
- speeding of ATP recovery (myocardial ATP levels [3]; acute stress models of recovery (i.e. global ischemia), ribose bypasses the G6PDH step): at least 10 fold
- return of myocardial ATP levels and function (myocardial ATP levels [3]; global ischemia and reperfusion model, ribose infusion): greatly enhance return
- ATP levels (myocardial ATP levels [4]): maintained for 24 hours
- post-MI rise in LV end-diastolic pressure (rodent MI model): reduced
- fall of ATP in the nonischemic myocardium (rodent MI model; first (24 hr) time point): reduce the fall of ATP
